ChEMBL document CHEMBL4715767, “Pterin-7-carboxamides as a new class of aldose reductase inhibitors” (Bioorg Med Chem Lett, 2016)

Biological target: T1, Aldo-keto reductase family 1 member B1 (Homo sapiens, UniProt P15121)
Experiment: Inhibition of recombinant human ALR2 using D,L-glyceraldehyde and NADPH as substrate preincubated for 3 mins followed by substrate addition and measured for 3 mins by spectrophotometric analysis
Conditions: not given

Row | IC50 | Structure (SMILES)
1 | Nd(Insoluble) | Nc1nc2ncc(C(=O)O)nc2c(=O)[nH]1 [PTERIN-6-CARBOXYLIC ACID]

Same assay, conditions: read-out: IC50

Row | Structure (SMILES) | IC50 [µM]
2 | Nc1nc2nc(C(=O)N[C@H](CO)C(=O)O)cnc2c(=O)[nH]1 | 130
3 | Nc1nc2nc(C(=O)N[C@@H](C(=O)O)c3ccccc3)cnc2c(=O)[nH]1 | 56.6
4 | Nc1nc2nc(C(=O)N[C@H](Cc3ccccc3)C(=O)O)cnc2c(=O)[nH]1 | 68.1
5 | CC[C@@H](C)[C@@H](NC(=O)c1cnc2c(=O)[nH]c(N)nc2n1)C(=O)O | 278
6 | Nc1nc2ncc(CNc3ccc(C(=O)N[C@@H](CCC(=O)O)C(=O)O)cc3)nc2c(=O)[nH]1 [FOLIC ACID] | 52.5
7 | CC[C@H](C)[C@H](NC(=O)c1cnc2c(=O)[nH]c(N)nc2n1)C(=O)O | 69
8 | Nc1nc2nc(C(=O)N[C@@H](Cc3ccc(O)cc3)C(=O)O)cnc2c(=O)[nH]1 | 216
9 | CC(C)[C@H](NC(=O)c1cnc2c(=O)[nH]c(N)nc2n1)C(=O)O | 83.4
10 | CC(C)C[C@H](NC(=O)c1cnc2c(=O)[nH]c(N)nc2n1)C(=O)O | 61.7
11 | Nc1nc2nc(C(=O)N[C@H](Cc3ccc(O)cc3)C(=O)O)cnc2c(=O)[nH]1 | 580
12 | C[C@@H](NC(=O)c1cnc2c(=O)[nH]c(N)nc2n1)C(=O)O | 72
13 | CC(C)C[C@@H](NC(=O)c1cnc2c(=O)[nH]c(N)nc2n1)C(=O)O | 97.2
14 | CC(C)[C@@H](NC(=O)c1cnc2c(=O)[nH]c(N)nc2n1)C(=O)O | 194

Continued, values first:

Row | IC50 [µM] | Structure (SMILES)
15 | 1.97 | Nc1nc2nc(C(=O)NCC(=O)O)cnc2c(=O)[nH]1
16 | 42.1 | Nc1nc2nc(C(=O)N[C@H](CCc3ccccc3)C(=O)O)cnc2c(=O)[nH]1
17 | 46 | Nc1nc2nc(C(=O)N[C@@H](Cc3ccccc3)C(=O)O)cnc2c(=O)[nH]1
18 | 26.5 | Nc1nc2nc(C(=O)O)cnc2c(=O)[nH]1
19 | 17.5 | Nc1nc2nc(C(=O)NCCC(=O)O)cnc2c(=O)[nH]1
20 | 42.6 | Nc1nc2nc(C(=O)N[C@H](C(=O)O)c3ccccc3)cnc2c(=O)[nH]1
21 | 11.7 | Nc1nc2nc(C(=O)NCCCCC(=O)O)cnc2c(=O)[nH]1
22 | 12.4 | C[C@H](NC(=O)c1cnc2c(=O)[nH]c(N)nc2n1)C(=O)O
23 | 4.02 | Nc1nc2nc(C(=O)NCCCCCC(=O)O)cnc2c(=O)[nH]1
24 | 25.5 | Nc1nc2nc(C(=O)NCCCC(=O)O)cnc2c(=O)[nH]1
25 | 29.2 | Nc1nc2nc(C(=O)N[C@@H](CO)C(=O)O)cnc2c(=O)[nH]1
26 | 25.1 | Nc1nc2nc(C(=O)N[C@@H](CCc3ccccc3)C(=O)O)cnc2c(=O)[nH]1

Biological target: T1, Aldo-keto reductase family 1 member B1
Experiment: Inhibition of recombinant human ALR2 at 10.5 mM using D,L-glyceraldehyde and NADPH as substrate preincubated for 3 mins followed by substrate addition and measured for 3 mins by spectrophotometric analysis relative to control
Conditions: time 6.0 min

Row | inhibition [%] | Structure (SMILES)
27 | 9 | Nc1nc2nc(C(=O)NCC(=O)N[C@@H](Cc3ccccc3)C(=O)O)cnc2c(=O)[nH]1
